Columns and labels:
Assay type in all cases: in vivo
Poa annua [1] = experiment: Herbicidal post-emergence action (Method A) against POAAN; settings: 504 h, rated visually after about 3 weeks vs untreated controls; for pest or weed control at 320 g/ha: read-out: Post-emergence action at 320 g/ha against POANN; for pest or weed control at 1280 g/ha: read-out: Post-emergence action at 1280 g/ha against POANN
Method: (§1) Method A: Herbicidal Post-Emergence Action Seeds of mono- and dicotyledonous weed plants are placed in plastic pots in sandy loam soil (twin sowing with one species each of mono- or dicotyledonous weed plants per pot), covered with soil and cultivated in a greenhouse under controlled growth conditions. 2 to 3 weeks after sowing, the test plants are treated at the one-leaf stage. The compounds of the invention, formulated in the form of wettable powders (WP) or as emulsion concentrates (EC), are applied to the green parts of the plants as aqueous suspension or emulsion with addition of 0.5% additive at a water application rate equivalent to 600 liters per hectare. After the test plants have been kept in the greenhouse under optimum growth conditions for about 3 weeks, the activity of the preparations is rated visually in comparison to untreated controls. For example, 100% activity=the plants have died, 0% activity=like control plants.

Setaria viridis = experiment: Herbicidal pre-emergence action (Method B) against SETVI; settings: 1280 g/ha, scored visually after about 3 weeks vs untreated controls
Description: (§2) Method B: Herbicidal Pre-Emergence Action Seeds of mono- and dicotyledonous weed plants are placed in plastic pots in sandy loam soil (doubly sown with one species each of mono- or dicotyledonous weed plants per pot) and covered with soil. The compounds of the invention, formulated in the form of wettable powders (WP) or as emulsion concentrates (EC), are then applied onto the surface of the covering soil as aqueous suspension or emulsion with addition of 0.5% additive at a water application rate equivalent to 600 liters per hectare. After the treatment, the pots are placed in a greenhouse and kept under good growth conditions for the trial plants. After about 3 weeks, the effect of the preparations is scored visually in comparison with untreated controls as percentages. For example, 100% action=the plants have died, 0% action=like control plants.

Echinochloa crus-galli [2] = experiment: Herbicidal pre-emergence action (Method B) against ECHCG; settings: 504 h, scored visually after about 3 weeks vs untreated controls
Description: as §2

Echinochloa crus-galli [3] = experiment: Herbicidal post-emergence action (Method A) against ECHCG; settings: rated visually after about 3 weeks vs untreated controls; for pest or weed control at 1280 g/ha: Echinochloa crus-galli, post-emergence, 504 h
Method: as §1

Lolium rigidum [4] = experiment: Herbicidal post-emergence action (Method A) against LOLRI; settings: rated visually after about 3 weeks vs untreated controls; for pest or weed control at 1280 g/ha: Lolium rigidum, post-emergence, 504 h
Method: as §1

Matricaria inodora [5] = experiment: Herbicidal pre-emergence action (Method B) against MATIN; settings: Tripleurospermum inodorum, 504 h, scored visually after about 3 weeks vs untreated controls
Description: as §2

harmful plants [6] = experiment: Herbicidal pre-emergence action (Method B), summary statement; settings: summary of tables B1-B12 (Method B)
Description: as §2

Poa annua [7] = experiment: Herbicidal pre-emergence action (Method B) against POAAN; settings: 504 h, scored visually after about 3 weeks vs untreated controls
Description: as §2

Stellaria media [8] = experiment: Herbicidal pre-emergence action (Method B) against STEME; settings: 504 h; for pest or weed control at 320 g/ha: dosage 320 g/ha; for pest or weed control at 1280 g/ha: dosage 1280 g/ha
Description: as §2

Stellaria media [9] = experiment: Herbicidal post-emergence action (Method A) against STEME; settings: 504 h, rated visually after about 3 weeks vs untreated controls
Method: as §1

Lolium rigidum [10] = experiment: Herbicidal pre-emergence action (Method B) against LOLRI; settings: 504 h, scored visually after about 3 weeks vs untreated controls
Description: as §2

Abutilon theophrast [11] = experiment: Herbicidal pre-emergence action (Method B) against ABUTH; settings: 1280 g/ha, scored visually after about 3 weeks vs untreated controls
Description: as §2

Matricaria inodora [12] = experiment: Herbicidal post-emergence action (Method A) against MATIN; settings: 1280 g/ha; rated visually after about 3 weeks vs untreated controls
Method: as §1

Amaranthus retroflexus = experiment: Herbicidal post-emergence action (Method A) against AMARE; settings: rated visually after about 3 weeks vs untreated controls
Method: as §1

Abutilon theophrast [13] = experiment: Herbicidal post-emergence action (Method A) against ABUTH; settings: rated visually after about 3 weeks vs untreated controls
Method: as §1

harmful plants [14] = experiment: Herbicidal post-emergence action (Method A), summary statement; settings: summary of tables A1-A11
Method: as §1

SMILES | pest or weed control at 320 g/ha (Poa annua [1]) [%] | pest or weed control at 1280 g/ha (Poa annua [1]) [%] | pest or weed control at 320 g/ha (Echinochloa crus-galli [2]) [%] | pest or weed control at 1280 g/ha (Echinochloa crus-galli [2]) [%] | pest or weed control at 1280 g/ha (Echinochloa crus-galli [3]) [%] | pest or weed control at 1280 g/ha (Lolium rigidum [4]) [%] | pest or weed control at 1280 g/ha (Matricaria inodora [5]) [%] | pest or weed control at 320 g/ha (Poa annua [7]) [%] | pest or weed control at 1280 g/ha (Poa annua [7]) [%] | pest or weed control at 320 g/ha (Stellaria media [8]) [%] | pest or weed control at 1280 g/ha (Stellaria media [8]) [%] | pest or weed control at 320 g/ha (Stellaria media [9]) [%] | pest or weed control at 1280 g/ha (Stellaria media [9]) [%] | pest or weed control at 320 g/ha (Lolium rigidum [10]) [%] | pest or weed control at 1280 g/ha (Lolium rigidum [10]) [%] | Post-emergence action at 1280 g/ha against MATIN (Matricaria inodora [12]) [%] | further results
NNC(=O)c1nc(C2CC2)ncc1-c1ccccc1Cl [Example I-497, 5-(2-chlorophenyl)-2-cyclopropylpyrimidine-4-carbohydrazide] | 100 | 100 | 100 | 100 | 100 | 100 | 100 | 100 | 100 | 100 | 100 | 100 | 100 | 90 | 100 | – | Pre-emergence action against SETVI (Setaria viridis): 90%; pest or weed control at 320 g/ha (Matricaria inodora [5]; 320 g/ha): 100%; herbicidal efficacy against harmful plants in pre-emergence treatment (harmful plants [6]): good herbicidal efficacy
O=C(NNC(=O)c1nc(C2CC2)ncc1-c1ccccc1Cl)c1ccccn1 [Example I-527, 5-(2-chlorophenyl)-2-cyclopropyl-N′-(pyridin-2-ylcarbonyl)pyrimidine-4-carbohydrazide] | 100 | 100 | 90 | 100 | 90 | 100 | – | 100 | 100 | 100 | 100 | 100 | 100 | 90 | 100 | 90 | Post-emergence action at 320 g/ha against LOLRI (Lolium rigidum [4]; 320 g/ha): 100%; Pre-emergence action against ABUTH (Abutilon theophrast [11]): 90%; Post-emergence action at 1280 g/ha against AMARE (Amaranthus retroflexus): 100%
O=CNNC(=O)c1nc(C2CC2)ncc1-c1ccccc1Cl [Example I-516, 5-(2-chlorophenyl)-2-cyclopropyl-N′-formylpyrimidine-4-carbohydrazide] | 100 | 100 | – | 100 | 100 | 90 | 100 | 100 | 100 | 100 | 100 | 90 | 100 | 100 | 100 | 90 | Post-emergence action at 320 g/ha against ECHCG (Echinochloa crus-galli [3]; 320 g/ha): 90%; Post-emergence action at 1280 g/ha against ABUTH (Abutilon theophrast [13]): 100%; herbicidal efficacy against harmful plants in the case of post-emergence treatment (harmful plants [14]): good herbicidal efficacy

— patent publication US20220033363A1, “HERBICIDALLY ACTIVE SUBSTITUTED PHENYLPYRIMIDINE HYDRAZIDES” (Bayer Aktiengesellschaft, priority 2018, published 2022)
